Results taken from patent US10662183B2, “Inhibitors of myocardin-related transcription factor and serum response factor (MRTF/SRF)-mediated gene transcription and methods for use of the same” (THE REGENTS OF THE UNIVERSITY OF MICHIGAN, priority 2014, dated 2020).

System: SRE.L-firefly luciferase reporter (Rho/MKL1 pathway) in PC-3 prostate cancer cells
Test: SRE.L-luciferase reporter assay
Type: cell-based
Conditions: PC-3 cells transfected with Gα12Q231L, SRE.L and pRL-TK reporters, compound 19 hrs
Experimental: Seed PC-3 prostate cancer cells (40,000 cells/well) were grown in 96-well plates in 10% FBS containing DMEM medium. Cells were transiently transfected with the Ga12QL activator of the Rho/MKL1 pathway, along with the SRE.L-firefly luciferase reporter construct for 6 hours. Additionally, cells were co-transfected with the TK-Renilla luciferase reporter as an indicator of non-specific compound effects. Various concentrations of the compounds disclosed herein were added to the 96-well plates. Plates were incubated for 19 hours at 37° C. and 5% C02 in 0.5% FBS containing DMEM medium. Cells were lysed with IX Passive Lysis Buffer (Promega). Plates were incubated for 30 minutes at room temperature. Luminescence counts were read with a Victor2 (Perkin-Elmer) plate reader.
One hour prior to cell lysis for the dual luciferase assay, 10 μl: per well of WST1 reagent (Roche) was added to the 96-well plates. Plates were incubated for 1 hour at 37° C. and 5% CO2. Cell viability was measured by WST1 absorbance at 450 nm with a Victor2 (Perkin-Elmer) plate reader.
Biological activity of the compounds disclosed herein were assessed in the SRE.L luciferase reporter assay. PC-3 prostate cancer cells were co-transfected with 2 ng of the Gα12Q231L expression plasmid along with 50 ng of the SRE.L and 7 ng of the pRL-TK luciferase reporter plasmids, as described in the Materials and Methods section. Cells were treated with 0 (vehicle, DMSO alone), 1, 3, 10, 30, and 100 μM of a compound disclosed herein for 19 hrs after transfection before lysis. Luminescence was determined as described in the Materials and Methods section. Just before cell lysis, the viability of the cells was measured using the WST-1 cell proliferation reagent as described in the Materials and Methods section. Data are expressed as percentage of inhibition (DMSO alone=0%). The experiments were performed three separate times to achieve n=3 in triplicate.

| Compound | IC50 (19 h) | IC50 |
| --- | --- | --- |
| O=C(Nc1ccc(Cl)cc1)C1CN(C(=O)c2cccc(-c3ccco3)c2)CC(F)(F)C1 (stereo not shown) [Example E-019, N-(4-chlorophenyl)-5,5-difluoro-1-(3-(furan-2-yl)benzoyl)piperidine-3-carboxamide] | 0.58 µM |  |
| C=C1CC(C(=O)Nc2ccc(Cl)cc2)CN(C(=O)c2cccc(-c3ccco3)c2)C1 (stereo not shown) [Example E-020, N-(4-chlorophenyl)-1-(3-(furan-2-yl)benzoyl)-5-methylenepiperidine-3-carboxamide] | 1.9 µM |  |
| COC1(OC)CC(C(=O)Nc2ccc(Cl)cc2)CN(C(=O)c2cccc(-c3ccco3)c2)C1 (stereo not shown) [Example E-021, N-(4-chlorophenyl)-1-(3-(furan-2-yl)benzoyl)-5,5-dimethoxypiperidine-3-carboxamide] | 4.4 µM |  |
| O=C(Nc1ccc(Cl)cc1)C1CCCN(C(=O)c2cc(-c3ccco3)ccn2)C1 (stereo not shown) [Example E-024, N-(4-chlorophenyl)-1-(4-(furan-2-yl)picolinoyl)piperidine-3-carboxamide] | 4.3 µM |  |
| O=C(Nc1ccc(Cl)cc1)C1CN(C(=O)c2cc(-c3ccco3)ccn2)CC(F)(F)C1 (stereo not shown) [Example E-025, N-(4-chlorophenyl)-5,5-difluoro-1-{[4-(furan-2-yl)pyridin-2-yl]carbonyl}piperidine-3-carboxamide] | 0.81 µM |  |
| O=C(Nc1ccc(Cl)cc1)C1CC(O)CN(C(=O)c2cccc(-c3ccco3)c2)C1 (stereo not shown) [Example E-027, N-(4-chlorophenyl)-1-{[3-(furan-2-yl)phenyl]carbonyl}-5-hydroxypiperidine-3-carboxamide] | 12.5 µM |  |
| CC1(C(=O)Nc2ccc(Cl)cc2)CCCN(C(=O)c2cccc(-c3ccco3)c2)C1 (stereo not shown) [Example E-028, N-(4-chlorophenyl)-1-(3-(furan-2-yl)benzoyl)-3-methylpiperidine-3-carboxamide] | 5 µM |  |
| Cc1ccc(-c2cccc(C(=O)N3CCCC(C(=O)Nc4ccc(Cl)cc4)C3)c2)o1 (stereo not shown) [Example E-029, N-(4-chlorophenyl)-1-(3-(5-methylfuran-2-yl)benzoyl)piperidine-3-carboxamide] | 3.1 µM |  |
| O=C(Nc1ccc(Cl)cc1)C1CCCN(C(=O)c2cccc(-n3cccn3)c2)C1 (stereo not shown) [Example E-030, 1-(3-(1H-pyrazol-1-yl)benzoyl)-N-(4-chlorophenyl)piperidine-3-carboxamide] | 6.1 µM |  |
| O=C(Nc1ccc(Cl)cc1)C1CCCN(C(=O)c2cccc(-c3cn[nH]c3)c2)C1 (stereo not shown) [Example E-031, 1-(3-(1H-pyrazol-4-yl)benzoyl)-N-(4-chlorophenyl)piperidine-3-carboxamide] | 3.4 µM |  |
| O=C(Nc1ccc(Cl)cc1)C1CCCN(C(=O)c2cccc(-c3cc[nH]n3)c2)C1 (stereo not shown) [Example E-032, 1-(3-(1H-pyrazol-3-yl)benzoyl)-N-(4-chlorophenyl)piperidine-3-carboxamide] | 3.2 µM |  |
| COc1ccc2nc(C(=O)N3CCCC(C(=O)Nc4ccc(Cl)cc4)C3)[nH]c2c1 (stereo not shown) [Example E-033, N-(4-chlorophenyl)-1-(6-methoxy-1H-benzo[d]imidazole-2-carbonyl)piperidine-3-carboxamide] | 2.7 µM |  |
| Cn1c(C(=O)N2CCCC(C(=O)Nc3ccc(Cl)cc3)C2)nc2ccccc21 (stereo not shown) [Example E-035, N-(4-chlorophenyl)-1-(1-methyl-1H-benzo[d]imidazole-2-carbonyl)piperidine-3-carboxamide] | 8 µM |  |
| O=C(Nc1ccc(Cl)cc1)C1CCCN(C(=O)c2cnc(Br)s2)C1 (stereo not shown) [Example E-036, 1-(2-bromothiazole-5-carbonyl)-N-(4-chlorophenyl) piperidine-3-carboxamide] | > 100 µM |  |
| O=C(Nc1ccc(Cl)cc1)C1CCCN(C(=O)c2cc(-c3ccco3)on2)C1 (stereo not shown) [Example E-039, N-(4-chlorophenyl)-1-(5-(furan-2-yl)isoxazole-3-carbonyl) piperidine-3-carboxamide] | 43 µM |  |
| O=C(Nc1ccc(Cl)cc1)C1CCCN(C(=O)c2cc(-c3ccco3)[nH]n2)C1 (stereo not shown) [Example E-040, N-(4-chlorophenyl)-1-(5-(furan-2-yl)-1H-pyrazole-3-carbonyl)piperidine-3-carboxamide] | 8.1 µM |  |
| O=C(Nc1ccc(Cl)cc1)C1CN(C(=O)c2cncc(-c3ccncc3)c2)CC(F)(F)C1 (stereo not shown) [Example E-042, 1-([3,4′-bipyridine]-5-carbonyl)-N-(4-chlorophenyl)-5,5-difluoropiperidine-3-carboxamide] | 0.91 µM |  |
| NC1CC(C(=O)Nc2ccc(Cl)cc2)CN(C(=O)c2cccc(-c3ccco3)c2)C1 (stereo not shown) [Example E-043, 5-amino-N-(4-chlorophenyl)-1-(3-(furan-2-yl)benzoyl)piperidine-3-carboxamide] | 5 µM |  |
| Cn1cncc1-c1cccc(C(=O)N2CC(C(=O)Nc3ccc(Cl)cc3)CC(F)(F)C2)c1 (stereo not shown) [Example E-047, N-(4-chlorophenyl)-5,5-difluoro-1-(3-(1-methyl-1H-imidazol-5-yl)benzoyl)piperidine-3-carboxamide] | 0.31 µM |  |
| CCC(=O)NC1CC(C(=O)Nc2ccc(Cl)cc2)CN(C(=O)c2cccc(-c3ccco3)c2)C1 (stereo not shown) [Example E-049, N-(4-chlorophenyl)-1-(3-(furan-2-yl)benzoyl)-5-propionamidopiperidine-3-carboxamide] | 6.3 µM |  |
| O=C(c1cccc(-c2cn[nH]c2)c1)N1CC(COc2ccc(Cl)cc2)CC(F)(F)C1 (stereo not shown) [Example E-051, (3-(1H-pyrazol-4-yl)phenyl)(5-((4-chlorophenoxy)methyl)-3,3-difluoropiperidin-1-yl)methanone] | 3.3 µM |  |
| O=C(Nc1ccc(Cl)cc1)C1CN(C(=O)c2cccc(-c3ccco3)c2)CCS1 (stereo not shown) [Example E-052, N-(4-chlorophenyl)-4-(3-(furan-2-yl)benzoyl) thiomorpholine-2-carboxamide] | 1.6 µM |  |
| O=C(Nc1ccc(Cl)cc1)C1CN(C(=O)c2cccc(-c3ccco3)c2)CCS1(=O)=O (stereo not shown) [Example E-053, N-(4-chlorophenyl)-4-(3-(furan-2-yl)benzoyl) thiomorpholine-2-carboxamide 1,1-dioxide] | 6.8 µM |  |
| O=C(NC1CC(C(=O)Nc2ccc(Cl)cc2)CN(C(=O)c2cccc(-c3ccco3)c2)C1)Oc1ccccc1 (stereo not shown) [Example E-056, phenyl (5-((4-chlorophenyl)carbamoyl)-1-(3-(furan-2-yl)benzoyl)piperidin-3-yl)carbamate] |  | 38 µM |

Continued, in another order:

| IC50 (19 h) | Compound | IC50 |
| --- | --- | --- |
| 4.9 µM | O=C(Nc1ccc(Cl)cc1)C1CCCN(C(=O)c2cncc(-c3ccco3)c2)C1 (stereo not shown) [Example E-023, N-(4-chlorophenyl)-1-(5-(furan-2-yl)nicotinoyl)piperidine-3-carboxamide] |  |
| 5.3 µM | O=C(Nc1ccc(Cl)cc1)C1CN(C(=O)c2cncc(-c3ccco3)c2)CC(F)(F)C1 (stereo not shown) [Example E-026, N-(4-chlorophenyl)-5,5-difluoro-1-{[5-(furan-2-yl)pyridin-3-yl]carbonyl}piperidine-3-carboxamide] |  |
| > 100 µM | O=C(Nc1ccc(Cl)cc1)C1CCCN(C(=O)c2cc(-c3ccco3)ncn2)C1 (stereo not shown) [Example E-034, N-(4-chlorophenyl)-1-(6-(furan-2-yl)pyrimidine-4-carbonyl) piperidine-3-carboxamide] |  |
| 18 µM | O=C(Nc1ccc(Cl)cc1)C1CCCN(C(=O)c2cnc(-c3ccco3)s2)C1 (stereo not shown) [Example E-037, N-(4-chlorophenyl)-1-(2-(furan-2-yl)thiazole-5-carbonyl)piperidine-3-carboxamide] |  |
| 6.5 µM | O=C(Nc1ccc(Cl)cc1)C1CCCN(C(=O)c2csc(-c3ccco3)n2)C1 (stereo not shown) [Example E-038, N-(4-chlorophenyl)-1-(2-(furan-2-yl)thiazole-4-carbonyl) piperidine-3-carboxamide] |  |
| 0.83 µM | O=C(Nc1ccc(Cl)cc1)C1CN(C(=O)c2cc(F)cc(-c3ccncc3)c2)CC(F)(F)C1 (stereo not shown) [Example E-041, N-(4-chlorophenyl)-5,5-difluoro-1-(3-fluoro-5-(pyridin-4-yl)benzoyl)piperidine-3-carboxamide] |  |
| 2.2 µM | CNC1CC(C(=O)Nc2ccc(Cl)cc2)CN(C(=O)c2cccc(-c3ccco3)c2)C1 (stereo not shown) [Example E-044, N-(4-chlorophenyl)-1-(3-(furan-2-yl)benzoyl)-5-(methylamino)piperidine-3-carboxamide] |  |
| 0.047 µM | O=C(Nc1ccc(Cl)cc1)C1CC(NCc2ccccc2)CN(C(=O)c2cccc(-c3ccco3)c2)C1 (stereo not shown) [Example E-048, 5-(benzylamino)-N-(4-chlorophenyl)-1-(3-(furan-2-yl)benzoyl)piperidine-3-carboxamide] |  |
| 1.1 µM | O=C(Nc1ccc(Cl)cc1)C1CN(C(=O)c2cccc(-c3ncccn3)c2)CC(F)(F)C1 (stereo not shown) [Example E-050, N-(4-chlorophenyl)-5,5-difluoro-1-(3-(pyrimidin-2-yl)benzoyl)piperidine-3-carboxamide] |  |
| 22 µM | COC(=O)NC1CC(C(=O)Nc2ccc(Cl)cc2)CN(C(=O)c2cccc(-c3ccco3)c2)C1 (stereo not shown) [Example E-057, methyl (5-((4-chlorophenyl)carbamoyl)-1-(3-(furan-2-yl)benzoyl)piperidin-3-yl)carbamate] |  |
